# Reference: patent US9815839B2, “N-(1-(substituted-phenyl)ethyl)-9H-purin-6-amines as PI3K inhibitors” (Incyte Corporation, priority 2010, dated 2017)
# Biological target: T1, PI3Kδ (p110δ/p85α) (Homo sapiens, UniProt O00329)
# T1 construct: purchased Millipore (Bedford, Mass.)
# Experiment: PI3Kδ scintillation proximity assay
# Assay type: biochemical
# Conditions: 20 μM ATP, 4 nM PI3Kδ
# Description: Example A: PI3Kδ Scintillation Proximity Assay
# Materials: [γ-^33P]ATP (10 mCi/mL) was purchased from Perkin-Elmer (Waltham, Mass.). Lipid kinase substrate, D-myo-Phosphatidylinositol 4,5-bisphosphate (PtdIns(4,5)P2)D (+)-sn-1,2-di-O-octanoylglyceryl, 3-O-phospho linked (PIP2), CAS 204858-53-7, was purchased from Echelon Biosciences (Salt Lake City, Utah). PI3Kδ (p110δ/p85α) was purchased from Millipore (Bedford, Mass.). ATP, MgCl2, DTT, EDTA, MOPS and CHAPS were purchased from Sigma-Aldrich (St. Louis, Mo.). Wheat Germ Agglutinin (WGA) YSi SPA Scintillation Beads was purchased from GE healthcare life sciences (Piscataway, N.J.).
# The kinase reaction was conducted in polystyrene 384-well matrix white plate from Thermo Fisher Scientific in a final volume of 25 μL. Inhibitors were first diluted serially in DMSO and added to the plate wells before the addition of other reaction components. The final concentration of DMSO in the assay was 0.5%. The PI3K assays were carried out at room temperature in 20 mM MOPS, pH 6.7, 10 mM MgCl2, 5 mM DTT and CHAPS 0.03%. Reactions were initiated by the addition of ATP, the final reaction mixture consisted of 20 μM PIP2,20 μM ATP, 0.2 μCi [γ-^33P] ATP, 4 nM PI3Kδ. Reactions were incubated for 210 minutes and terminated by the addition of 40 μL SPA beads suspended in quench buffer: 150 mM potassium phosphate pH 8.0, 20% glycerol. 25 mM EDTA, 400 µM ATP. The final concentration of SPA beads is 1.0 mg/mL. After the plate sealing, plates were shaken overnight at room temperature and centrifuged at 1800 rpm for 10 minutes, the radioactivity of the product was determined by scintillation counting on Topcount (Perkin-Elmer). IC50 determination was performed by fitting the curve of percent control activity versus the log of the inhibitor concentration using the GraphPad Prism 3.0 software.
# T1 sequence (O00329 whole entry, species assumed): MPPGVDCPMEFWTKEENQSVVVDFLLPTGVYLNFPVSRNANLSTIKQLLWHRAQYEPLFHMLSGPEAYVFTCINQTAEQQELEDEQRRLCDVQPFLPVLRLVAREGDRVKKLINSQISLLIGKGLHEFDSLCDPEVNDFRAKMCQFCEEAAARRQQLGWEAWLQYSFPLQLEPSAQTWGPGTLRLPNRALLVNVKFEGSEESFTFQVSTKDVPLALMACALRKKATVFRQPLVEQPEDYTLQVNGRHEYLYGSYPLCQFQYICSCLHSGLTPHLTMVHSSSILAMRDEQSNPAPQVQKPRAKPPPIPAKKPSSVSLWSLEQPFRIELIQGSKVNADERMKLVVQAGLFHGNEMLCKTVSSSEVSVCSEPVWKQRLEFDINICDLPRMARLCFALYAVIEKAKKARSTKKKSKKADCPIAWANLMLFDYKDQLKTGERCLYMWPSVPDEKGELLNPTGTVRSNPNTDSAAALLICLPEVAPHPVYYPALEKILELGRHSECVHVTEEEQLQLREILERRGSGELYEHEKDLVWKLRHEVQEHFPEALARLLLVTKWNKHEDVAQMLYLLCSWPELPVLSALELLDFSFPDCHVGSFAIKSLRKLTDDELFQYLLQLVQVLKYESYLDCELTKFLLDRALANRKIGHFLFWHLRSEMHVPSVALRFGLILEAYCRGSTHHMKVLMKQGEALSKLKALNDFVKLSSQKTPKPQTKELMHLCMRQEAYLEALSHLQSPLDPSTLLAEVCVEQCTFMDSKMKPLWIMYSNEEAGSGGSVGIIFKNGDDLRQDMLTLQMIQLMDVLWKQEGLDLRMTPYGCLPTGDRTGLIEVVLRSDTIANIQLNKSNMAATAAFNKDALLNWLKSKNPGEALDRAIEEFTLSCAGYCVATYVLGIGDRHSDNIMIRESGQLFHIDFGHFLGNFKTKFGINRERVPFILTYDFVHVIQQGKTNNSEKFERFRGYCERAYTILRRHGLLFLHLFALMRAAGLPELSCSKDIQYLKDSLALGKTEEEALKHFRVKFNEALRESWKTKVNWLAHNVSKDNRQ
# T1 sequence (P27986 whole entry partner, species assumed): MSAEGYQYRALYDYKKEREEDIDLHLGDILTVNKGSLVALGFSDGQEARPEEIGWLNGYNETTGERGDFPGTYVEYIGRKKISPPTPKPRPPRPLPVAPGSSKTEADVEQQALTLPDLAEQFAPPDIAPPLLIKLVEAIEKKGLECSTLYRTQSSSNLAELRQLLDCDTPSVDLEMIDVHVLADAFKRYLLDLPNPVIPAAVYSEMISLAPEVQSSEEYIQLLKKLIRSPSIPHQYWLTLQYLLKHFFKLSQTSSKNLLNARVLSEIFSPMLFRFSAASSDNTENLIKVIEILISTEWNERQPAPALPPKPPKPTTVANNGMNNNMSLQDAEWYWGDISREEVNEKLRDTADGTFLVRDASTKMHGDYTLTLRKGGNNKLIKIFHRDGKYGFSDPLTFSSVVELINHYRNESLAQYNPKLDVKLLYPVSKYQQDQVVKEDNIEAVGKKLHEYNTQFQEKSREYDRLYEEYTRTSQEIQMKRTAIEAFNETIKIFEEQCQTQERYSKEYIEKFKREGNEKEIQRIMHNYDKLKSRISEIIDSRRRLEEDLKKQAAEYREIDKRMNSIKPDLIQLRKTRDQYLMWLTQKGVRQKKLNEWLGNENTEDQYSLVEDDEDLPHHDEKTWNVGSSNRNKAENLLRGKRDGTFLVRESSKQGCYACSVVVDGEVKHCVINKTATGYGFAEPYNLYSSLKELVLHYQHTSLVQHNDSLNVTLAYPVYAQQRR
row,Structure (SMILES),IC50
1,"Cc1c(Cl)cc(C(C)Nc2ncnc3[nH]cnc23)c(OCCN2CCOCC2)c1-c1cncc(C(=O)N2CCOCC2)c1 (centres unmarked) [Example 155, N-{1-[5-chloro-4-methyl-3-[5-(morpholin-4-ylcarbonyl)-pyridin-3-yl]-2-(2-morpholin-4-ylethoxy)-phenyl]-ethyl}-9H-purin-6-amine]",< 50 nM
2,"COc1c(-c2cnc(N)nc2)cc(Cl)cc1C(C)Nc1ncnc2[nH]cnc12 (centres unmarked) [Example 143, N-{1-[3-(2-amino-pyrimidin-5-yl)-5-chloro-2-methoxyphenyl]-ethyl}-9H-purin-6-amine]",100 to 250 nM
3,"COc1c(C(C)Nc2ncnc3[nH]cnc23)cc(Cl)c(C)c1C1CC(=O)N(C)C1 (single isomer, unassigned) [Example 193, 4-{3-chloro-6-methoxy-2-methyl-5-[1-(9H-purin-6-ylamino)ethyl]phenyl}-1-methylpyrrolidin-2-one]",< 50 nM
4,"COc1c(C(C)Nc2ncnc3[nH]cnc23)cc(Cl)c(C)c1-c1cc(F)cc(Cl)c1 (centres unmarked) [Example 85, N-[1-(3′,5-dichloro-5′-fluoro-2-methoxy-6-methylbiphenyl-3-yl)ethyl]-9H-purin-6-amine]",250 to 500 nM
5,"COc1c(C(C)Nc2ncnc3[nH]cnc23)cc(Cl)c(C)c1-c1ccc(C#N)nc1 (centres unmarked) [Example 58, 5-{3-chloro-6-methoxy-2-methyl-5-[1-(9H-purin-6-ylamino)ethyl]phenyl}pyridine-2-carbonitrile]",50 to 100 nM
6,"COc1ncc(-c2cc(Cl)cc(C(C)Nc3ncnc4[nH]cnc34)c2-c2cc(F)cc(F)c2)cn1 (centres unmarked) [Example 129, N-{1-[4-chloro-3′,5′-difluoro-6-(2-methoxy-pyrimidin-5-yl)biphenyl-2-yl]ethyl}-9H-purin-6-amine]",< 50 nM
7,"COc1c(-c2ccc(S(C)(=O)=O)cc2)cc(Cl)cc1C(C)Nc1ncnc2[nH]cnc12 (centres unmarked) [Example 142, N-{1-[5-chloro-2-methoxy-4′-(methylsulfonyl)-biphenyl-3-yl]ethyl}-9H-purin-6-amine]",50 to 100 nM
8,"CC(=O)Nc1ccc(-c2c(C)c(Cl)cc(C(C)Nc3ncnc4[nH]cnc34)c2OCCN2CCOCC2)cn1 (centres unmarked) [Example 158, N-(5-{3-chloro-2-methyl-6-(2-morpholin-4-ylethoxy)-5-[1-(9H-purin-6-yl-amino)ethyl]-phenyl}-pyridin-2-yl)acetamide]",< 50 nM
9,"CCC(Nc1ncnc2[nH]cnc12)c1cc(Cl)c(C)c(-c2cncc(F)c2)c1OC (centres unmarked) [Example 181, N-{1-[5-chloro-3-(5-fluoropyridin-3-yl)-2-methoxy-4-methylphenyl]propyl}-9H-purin-6-amine bis(2,2,2-trifluoroacetate)]",< 50 nM
10,"CC(=O)Nc1ccc(-c2cc(Cl)cc(C(C)Nc3ncnc4[nH]cnc34)c2-c2cc(F)cc(F)c2)cc1 (centres unmarked) [Example 130, N-{5′-chloro-3″,5″-difluoro-3′-[1-(9H-purin-6-ylamino)ethyl]-1,1′:2′,1″-terphenyl-4-yl}acetamide]",< 50 nM
11,"COc1c(C(C)Nc2ncnc3[nH]cnc23)cc(Cl)c(F)c1CN1CCOCC1 (centres unmarked) [Example 188, N-{1-[5-Chloro-4-fluoro-2-methoxy-3-(morpholin-4-ylmethyl)phenyl]ethyl}-9H-purin-6-amine]",< 50 nM
12,"COc1ccc(-c2c(C)c(Cl)cc(C(C)Nc3ncnc4[nH]cnc34)c2OC)cc1C (centres unmarked) [Example 102, N-[1-(5-chloro-2,4′-dimethoxy-3′,6-dimethylbiphenyl-3-yl)ethyl]-9H-purin-6-amine]",100 to 250 nM
13,"CCOc1c(C(C)Nc2ncnc3[nH]cnc23)cc(Cl)c(C)c1C1CN(C)C1 (centres unmarked) [Example 173, N-{1-[5-chloro-2-ethoxy-4-methyl-3-(1-methylazetidin-3-yl)phenyl]ethyl}-9H-purin-6-amine]",< 50 nM
14,"COc1ccc(-c2cc(Cl)cc(C(C)Nc3ncnc4[nH]cnc34)c2OC)cn1 (centres unmarked) [Example 148, N-{1-[5-chloro-2-methoxy-3-(6-methoxypyridin-3-yl)phenyl]ethyl}-9H-purin-6-amine]",50 to 100 nM
15,"COc1c(C(C)Nc2ncnc3[nH]cnc23)cc(Cl)c(Cl)c1C1CN(C(C)C(F)(F)F)C1 (centres unmarked) [Example 198, N-(1-{4,5-Dichloro-2-methoxy-3-[1-(2,2,2-trifluoro-1-methylethyl)azetidin-3-yl]phenyl}ethyl)-9H-purin-6-amine bistrifluoroacetate]",< 50 nM
16,"Cc1c(Cl)cc(C(C)Nc2ncnc3[nH]cnc23)c(OCCN2CCOCC2)c1-c1ccnn1C (centres unmarked) [Example 152, N-{1-[5-chloro-4-methyl-3-(1-methyl-1H-pyrazol-5-yl)-2-(2-morpholin-4-ylethoxy)-phenyl]-ethyl}-9H-purin-6-amine]",< 50 nM
17,"COc1c(C(C)Nc2ncnc3[nH]cnc23)cc(Cl)c(Cl)c1C1CN(CC#N)C1 (centres unmarked) [Example 206, (3-{2,3-Dichloro-6-methoxy-5-[1-(9H-purin-6-ylamino)ethyl]phenyl}azetidin-1-yl)acetonitrile bis(trifluoroacetate)]",< 50 nM

# Next, values leading:
row,IC50,Structure (SMILES)
1,250 to 500 nM,"COc1c(C(C)Nc2ncnc3[nH]cnc23)cc(Cl)c(C)c1-c1ccc(Cl)cc1 (centres unmarked) [Example 99, N-[1-(4′,5-dichloro-2-methoxy-6-methylbiphenyl-3-yl)ethyl]-9H-purin-6-amine]"
2,< 50 nM,"CCNC(=O)c1ccc(-c2c(C)c(Cl)cc(C(C)Nc3ncnc4[nH]cnc34)c2OC)cc1F (centres unmarked) [Example 64, 3′-chloro-N-ethyl-3-fluoro-6′-methoxy-2′-methyl-5′-[1-(9H-purin-6-ylamino)ethyl]biphenyl-4-carboxamid]"
3,50 to 100 nM,"COc1c(C(C)Nc2ncnc3[nH]cnc23)cc(F)c(C)c1-c1ccc(C(=O)NC2CC2)cc1 (centres unmarked) [Example 120, N-cyclopropyl-3′-fluoro-6′-methoxy-2′-methyl-5′-[1-(9H-purin-6-ylamino)ethyl]biphenyl-4-carboxamide]"
4,< 50 nM,"COc1c(C(C)Nc2ncnc3[nH]cnc23)cc(Cl)c(C)c1-c1ccc(F)c(C(N)=O)c1 (centres unmarked) [Example 61, 3′-Chloro-4-fluoro-6′-methoxy-2′-methyl-5′-[1-(9H-purin-6-ylamino)ethyl]biphenyl-3-carboxamide]"
5,< 50 nM,"COc1c(C(C)Nc2ncnc3[nH]cnc23)cc(Cl)c(C)c1-c1ccc(C(N)=O)c(F)c1 (centres unmarked) [Example 62, 3′-Chloro-3-fluoro-6′-methoxy-2′-methyl-5′-[1-(9H-purin-6-ylamino)ethyl]biphenyl-4-carboxamide]"
6,< 50 nM,"COc1c(C(C)Nc2ncnc3[nH]cnc23)cc(Cl)c(C)c1-c1ccc(CO)nc1 (centres unmarked) [Example 183, (5-{3-chloro-6-methoxy-2-methyl-5-[1-(9H-purin-6-ylamino)ethyl]phenyl}pyridin-2-yl)methanol bis(2,2,2-trifluoroacetate)]"
7,50 to 100 nM,"COc1c(C(C)Nc2ncnc3[nH]cnc23)cc(F)c(C)c1-c1cnc(N)nc1 (centres unmarked) [Example 123, N-{1-[3-(2-aminopyrimidin-5-yl)-5-fluoro-2-methoxy-4-methylphenyl]ethyl}-9H-purin-6-amine]"
8,250 to 500 nM,"COc1c(C(C)Nc2ncnc3[nH]cnc23)cc(F)c(C)c1-c1ccnn1C (centres unmarked) [Example 122, N-{1-[5-fluoro-2-methoxy-4-methyl-3-(1-methyl-1H-pyrazol-5-yl)phenyl]ethyl}-9H-purin-6-amine]"
9,< 50 nM,"COc1c(C(C)Nc2ncnc3[nH]cnc23)cc(Cl)c(C)c1-c1ccc(N)nc1 (centres unmarked) [Example 57, N-{1-[3-(6-aminopyridin-3-yl)-5-chloro-2-methoxy-4-methylphenyl]ethyl}-9H-purin-6-amine]"
